Data as given in article PMC8408311 (Diabetologia, 2021).
Where two headings read alike, the source gives them in different places.

How the values were obtained:
[1] = CADODIAME study, subclinical diabetic macular oedema; format: in vivo, human; conditions: 1000 mg twice per day, 1 year; SD 14
[2] = Low dose gliclazide and sitagliptin crossover study, mixed meal test and CGM; format: in vivo, human; conditions: 2-hour MMT after 14 days
HFD C57BL/6J mice = test: obesity-induced cardiac dysfunction, high-fat diet mice; format: in vivo; conditions: 10 mg/kg/day intragastric for 8 weeks
male Wistar rats = test: 30-min filament middle cerebral artery occlusion; format: in vivo, rat; conditions: 48 h after MCAO; healthy 18 points, maximal deficit 3 points
[3] = SURPASS-2, add-on to metformin in type 2 diabetes; format: in vivo, human; conditions: TZP range over 5-15 mg; SEMA 1 mg
[4] = system: people with T2D inadequately controlled with diet and exercise; test: SURPASS-1 trial; format: in vivo, human; conditions: across TZP doses
[5] = SURPASS-5, add-on to insulin glargine in type 2 diabetes; conditions: range over 5, 10, 15 mg
[6] = Tirzepatide single-dose PK in hepatic impairment; format: in vivo, human
[7] = single dose 50 mg
[8] = 3-year prospective observational study of quadruple oral therapy in T2DM; format: in vivo, human; conditions: empagliflozin 25 mg/day, dapagliflozin 10 mg/day
[9] = Swedish registry cohorts, causal random forest, change after 6 months versus SU; format: in vivo, human; conditions: after 6 months treatment
C57BL/6 mice = test: High-fat diet-fed mice, 8 weeks of treatment; format: in vivo, mouse; conditions: HFD mice, 10mg/kg for 8 weeks
[10] = EMPA-REG OUTCOME, uric acid and gout analysis; format: in vivo, human
[11] = VERTIS CV, analysis in older patients; format: in vivo, human
[12] = Liraglutide crossover trial, Holter monitoring and echocardiography; format: in vivo, human; conditions: 12 weeks
[13] = SUSTAIN 10 post hoc analysis by baseline SGLT-2i; format: in vivo, human
[14] = system: patients with type 2 diabetes at CV risk; test: PIONEER 6, treatment discontinuation; parameters: species or system human; conditions: in vivo
[15] = Insulin icodec titration trial, CGM hypoglycaemia duration, insulin-naive T2D; format: in vivo, human
[16] = system: insulin-naive patients with type 2 diabetes; test: Icodec phase 2 titration trial, CGM post hoc; format: in vivo, human; conditions: titration B, weeks 15&16
[17] = format: in vivo, human
[18] = system: human hTERT-immortalized adipose tissue-derived MSCs; test: PPARG splicing in adipose tissue-derived MSCs treated with recombinant cytokines; format: cell-based
Arrb2-/- beta cells = test: Incretin responses in Arrb2-/- beta cells; format: cell-based, mouse
[19] = system: mouse pancreatic beta cells; test: PKA activation; format: cell-based; conditions: only effective from
[20] = Danish registry cohort, hypoglycaemic episodes leading to hospitalisation; format: in vivo, human
[21] = EXPECT trial, pregnant women with type 1 diabetes; format: in vivo, human; conditions: degludec once daily or detemir 1-2 times daily, both with insulin aspart
C57BL/6J mice = test: Pparg splicing in epididymal adipose tissue of LPS-injected mice; format: in vivo, mouse; conditions: inflamed adipose tissue, n=6

In the case of `O=S(=O)(O)c1cc(O)ccc1O` [CaD, Calcium dobesilate], the “Mean decrease of retinal thickness” value [1] is reported as 2.5 μm.
In the case of `N[C@@H](CC(=O)N1CCn2c(nnc2C(F)(F)F)C1)Cc1cc(F)c(F)cc1F` [DPP4, sitagliptin], the “Beta cell glucose sensitivity” value [2] is reported as 75.9 (55.7 - 96.0) pmol min^-1 m^-2mM^-1.
In the case of `OC[C@H]1O[C@@H](c2ccc(Cl)c(Cc3ccc(O[C@H]4CCOC4)cc3)c2)[C@H](O)[C@@H](O)[C@@H]1O` [EMPA, empagliflozin], the “body weight and whole-body fat” value (HFD C57BL/6J mice) is reported as “Lower”, the myocardial damage (HFD C57BL/6J mice) is reported as “reduced” and the “Garcia score (neurological deficit)” value (male Wistar rats) is reported as 12.0 (9.5; 14.0) points.
For `CC[C@H](C)[C@H](NC(=O)[C@H](CC(C)C)NC(=O)[C@H](Cc1c[nH]c2ccccc12)NC(=O)[C@H](CCC(N)=O)NC(=O)[C@@H](NC(=O)[C@H](Cc1ccccc1)NC(=O)[C@H](C)NC(=O)[C@H](CCCCNC(=O)COCCOCCNC(=O)COCCOCCNC(=O)CC[C@H](NC(=O)CCCCCCCCCCCCCCCCCCC(=O)O)C(=O)O)NC(=O)[C@H](CCC(N)=O)NC(=O)[C@H](C)NC(=O)[C@@H](NC(=O)[C@H](CCCCN)NC(=O)[C@H](CC(=O)O)NC(=O)[C@H](CC(C)C)NC(=O)C(C)(C)NC(=O)[C@@H](NC(=O)[C@H](CO)NC(=O)[C@H](Cc1ccc(O)cc1)NC(=O)[C@H](CC(=O)O)NC(=O)[C@H](CO)NC(=O)[C@@H](NC(=O)[C@H](Cc1ccccc1)NC(=O)[C@@H](NC(=O)CNC(=O)[C@H](CCC(=O)O)NC(=O)C(C)(C)NC(=O)[C@@H](N)Cc1ccc(O)cc1)[C@@H](C)O)[C@@H](C)O)[C@@H](C)CC)[C@@H](C)CC)C(C)C)C(=O)N[C@@H](C)C(=O)NCC(=O)NCC(=O)N1CCC[C@H]1C(=O)N[C@@H](CO)C(=O)N[C@@H](CO)C(=O)NCC(=O)N[C@@H](C)C(=O)N1CCC[C@H]1C(=O)N1CCC[C@H]1C(=O)N1CCC[C@H]1C(=O)N[C@@H](CO)C(N)=O` [TZP, Tirzepatide], the Diarrhoea [3] was 13-16%, the Nausea [3] was 17-22% and the Vomiting [3] was 6-10%. For the same molecule, the Diarrhoea [4] was 12-14%, the Nausea [4] was 12-18% and the “Diarrhoea, patients reporting” value [5] was 12-21%. The “Incidence of hypoglycaemia (blood glucose <3.0 mmol/L) or severe hypoglycaemia” value [5] was 14-19%, the “Nausea, patients reporting” value [5] was 13-18% and the “Vomiting, patients reporting” value [5] was 7-13%.
In the case of `CC[C@H](C)[C@H](NC(=O)[C@H](CC(C)C)NC(=O)[C@H](Cc1c[nH]c2ccccc12)NC(=O)[C@H](CCC(N)=O)NC(=O)[C@@H](NC(=O)[C@H](Cc1ccccc1)NC(=O)[C@H](C)NC(=O)[C@H](CCCCNC(=O)COCCOCCNC(=O)COCCOCCNC(=O)CC[C@H](NC(=O)CCCCCCCCCCCCCCCCCCC(=O)O)C(=O)O)NC(=O)[C@H](CCC(N)=O)NC(=O)[C@H](C)NC(=O)[C@@H](NC(=O)[C@H](CCCCN)NC(=O)[C@H](CC(=O)O)NC(=O)[C@H](CC(C)C)NC(=O)C(C)(C)NC(=O)[C@@H](NC(=O)[C@H](CO)NC(=O)[C@H](Cc1ccc(O)cc1)NC(=O)[C@H](CC(=O)O)NC(=O)[C@H](CO)NC(=O)[C@@H](NC(=O)[C@H](Cc1ccccc1)NC(=O)[C@@H](NC(=O)CNC(=O)[C@H](CCC(=O)O)NC(=O)C(C)(C)NC(=O)[C@@H](N)Cc1ccc(O)cc1)[C@@H](C)O)[C@@H](C)O)[C@@H](C)CC)[C@@H](C)CC)C(C)C)C(=O)N[C@@H](C)C(=O)NCC(=O)NCC(=O)N1CCC[C@H]1C(=O)N[C@@H](CO)C(=O)N[C@@H](CO)C(=O)NCC(=O)N[C@@H](C)C(=O)N1CCC[C@H]1C(=O)N1CCC[C@H]1C(=O)N1CCC[C@H]1C(=O)N[C@@H](CO)C(N)=O` [Tirzepatide], the median tmax ([6]; across all groups) is reported as “no change” and the “geometric least squares mean t1/2” value ([6]; control and hepatic impairment groups) is reported as “similar”.
With `CCOc1ccc(Cc2cc([C@@H]3O[C@H](CO)[C@@H](O)[C@H](O)[C@H]3O)ccc2Cl)cc1` [dapagliflozin] the adverse events [7] was “no adverse events”, the “Change in body weight at 3 years” value [8] was -1.0 ± 3.3 kg and the “Change in fasting plasma glucose at 3 years” value [8] was -47.4 ± 61.7 mg/dL. The “Absolute risk reduction for the primary outcome” value (UACR >3500 mg/g, 95%CI 3.0, 24.5) was 13.8%, the “Absolute risk reduction for the primary outcome” value (UACR >1000 to ≤3500 mg/g, 95%CI 3.6, 10.1) was 6.9% and the “Average treatment effect on change in HbA1c compared to SU” value [9] was -1.10 [-1.92, -0.27] mmol/mol.
In the case of `OC[C@H]1O[C@@H](c2ccc(Cl)c(Cc3ccc(O[C@H]4CCOC4)cc3)c2)[C@H](O)[C@@H](O)[C@@H]1O` [empagliflozin, Empagliflozin], the “Change in body weight at 3 years” value [8] is reported as -4.5 ± 2.5 kg, the “Change in fasting plasma glucose at 3 years” value [8] is reported as -59.3 ± 53.3 mg/dL and the Body weight (C57BL/6 mice) is reported as 40 ± 0.9 g. The Fat mass (C57BL/6 mice) was 8.5 ± 1.5 g, the “Hazard ratio (95% CI) for gout flare or initiation of a drug for gout vs placebo” value ([10]; pooled empagliflozin) was 0.67 (0.53, 0.85) and the “Patients with a gout flare or initiation of a drug for gout” value ([10]; pooled empagliflozin, patients not on UA lowering medication at baseline) was 3.6%. For the same molecule, the “Serum uric acid, adjusted mean (95% CI) treatment difference vs placebo” value ([10]; week 52, baseline UA levels ≥6 mg/dL) was −0.46 (−0.55, −0.38) mg/dL and the “Serum uric acid, adjusted mean (95% CI) treatment difference vs placebo” value ([10]; week 52, pooled 10 and 25 mg/day) was −0.37 (−0.42, −0.31) mg/dL.
In the case of `CCOc1ccc(Cc2cc([C@]34OC[C@](CO)(O3)[C@@H](O)[C@H](O)[C@H]4O)ccc2Cl)cc1` [ertugliflozin], the “Incidence of hypovolemia AEs” value ([11]; patients ≥65 yrs) is reported as 5.3% and the “Incidence of hypovolemia AEs” value ([11]; patients ≥75 yrs) is reported as 6.9%.
In the case of `CCCCCCCCCCCCCCCC(=O)N[C@@H](CCC(=O)NCCCC[C@H](NC(=O)[C@H](C)NC(=O)[C@H](C)NC(=O)[C@H](CCC(N)=O)NC(=O)CNC(=O)[C@H](CCC(=O)O)NC(=O)[C@H](CC(C)C)NC(=O)[C@H](Cc1ccc(O)cc1)NC(=O)[C@H](CO)NC(=O)[C@H](CO)NC(=O)[C@@H](NC(=O)[C@H](CC(=O)O)NC(=O)[C@H](CO)NC(=O)[C@@H](NC(=O)[C@H](Cc1ccccc1)NC(=O)[C@@H](NC(=O)CNC(=O)[C@H](CCC(=O)O)NC(=O)[C@H](C)NC(=O)[C@@H](N)Cc1cnc[nH]1)[C@@H](C)O)[C@@H](C)O)C(C)C)C(=O)N[C@@H](CCC(=O)O)C(=O)N[C@@H](Cc1ccccc1)C(=O)N[C@H](C(=O)N[C@@H](C)C(=O)N[C@@H](Cc1c[nH]c2ccccc12)C(=O)N[C@@H](CC(C)C)C(=O)N[C@H](C(=O)N[C@@H](CCCNC(=N)N)C(=O)NCC(=O)N[C@@H](CCCNC(=N)N)C(=O)NCC(=O)O)C(C)C)[C@@H](C)CC)C(=O)O` [liraglutide], the “Impairment of diastolic filling (e')” value [12] is reported as 10%, the “Premature treatment discontinuations due to AEs” value ([13]; with SGLT-2i) is reported as 7.2% and the “Premature treatment discontinuations due to AEs” value ([13]; without SGLT-2i) is reported as 6.4%.
With `CC[C@H](C)[C@H](NC(=O)[C@H](Cc1ccccc1)NC(=O)[C@H](CCC(=O)O)NC(=O)[C@H](CCCCNC(=O)COCCOCCNC(=O)COCCOCCNC(=O)CC[C@H](NC(=O)CCCCCCCCCCCCCCCCC(=O)O)C(=O)O)NC(=O)[C@H](C)NC(=O)[C@H](C)NC(=O)[C@H](CCC(N)=O)NC(=O)CNC(=O)[C@H](CCC(=O)O)NC(=O)[C@H](CC(C)C)NC(=O)[C@H](Cc1ccc(O)cc1)NC(=O)[C@H](CO)NC(=O)[C@H](CO)NC(=O)[C@@H](NC(=O)[C@H](CC(=O)O)NC(=O)[C@H](CO)NC(=O)[C@@H](NC(=O)[C@H](Cc1ccccc1)NC(=O)[C@@H](NC(=O)CNC(=O)[C@H](CCC(=O)O)NC(=O)C(C)(C)NC(=O)[C@@H](N)Cc1cnc[nH]1)[C@@H](C)O)[C@@H](C)O)C(C)C)C(=O)N[C@@H](C)C(=O)N[C@@H](Cc1c[nH]c2ccccc12)C(=O)N[C@@H](CC(C)C)C(=O)N[C@H](C(=O)N[C@@H](CCCNC(=N)N)C(=O)NCC(=O)N[C@@H](CCCNC(=N)N)C(=O)NCC(=O)O)C(C)C` [oral semaglutide, semaglutide] the “patients who stopped at least once due to an AE” value [14] was 27%.
In the case of Insulin icodec, the “Overall hypoglycaemic episode duration, median (IQR)” value ([15]; titration A (4.4-7.2 mmol/L; ±21 U/week), CGM <3.9 mmol/L for at least 15 min) is reported as 35.0 (20.0, 70.0) min, the “Overall hypoglycaemic episode duration, median (IQR)” value ([15]; titration B (4.4-7.2 mmol/L ±28 U/week)) is reported as 35.0 (20.0, 70.0) min and the “Overall hypoglycaemic episode duration, median (IQR)” value ([15]; titration C (3.9-6.0 mmol/L ±28 U/week)) is reported as 39.0 (24.0, 70.0) min. The “patients with >70% TIR and TBR<3.9 mmol/L <4%” value [16] was 80.0%, the “Overall hypoglycaemic episode duration, median (IQR)” value ([17]; with 100% loading dose) was 40.0 (20.0, 75.0) min and the “Overall hypoglycaemic episode duration, median (IQR)” value ([17]; without loading dose) was 40.0 (25.0, 80.0) min.
In the case of TNFα, the “Increase of PpargΔ5/cPparg ratio” value [18] is reported as 2.5 fold.
For “glucose-dependent insulinotropic polypeptide (YAEGTFISDYSIAMDKIHQQDFVNWLLAQKGKKNDWKHNITQ; Gastric inhibitory polypeptide; UniProt P09681 52-93, looked up) [GIP]”, the “Reduction of insulin secretion in Arrb2-/- beta cells” value (Arrb2-/- beta cells) was ~ 50% and the “Lowest effective concentration on PKA activation and insulin secretion” value [19] was ≥ 1 nM.
In the case of human insulin, the “HR for hypoglycaemic episodes leading to hospitalisation” value ([20]; combination human insulin) is reported as 1.84 and the “HR for hypoglycaemic episodes leading to hospitalisation” value ([20]; intermediate-acting human insulin) is reported as 1.38.
For insulin detemir, the “Estimated mean HbA1c prior to delivery” value [21] was 6.34%.
For lipopolysaccharides [LPS], the “Increase of PpargΔ5/cPparg ratio” value (C57BL/6J mice) was 3.5 fold.
